The results in this text go back to patent US6043212A, “Recombinant C140 receptor, its agonists and antagonists, and nucleic acids encoding the receptor” (COR Therapeutics, Inc., priority 1995, dated 2000).

Test [1] addresses T1, wild-type mouse C140 receptor (Mus musculus, UniProt P55086).
T1 construct: Native receptors were produced by cloning the coding region of the receptor gene; expressed in transfected cells; host or cells: Xenopus laevis oocytes injected with capped cRNA from pSG-5 C140
T1 sequence (P55086 32-399 limits assumed): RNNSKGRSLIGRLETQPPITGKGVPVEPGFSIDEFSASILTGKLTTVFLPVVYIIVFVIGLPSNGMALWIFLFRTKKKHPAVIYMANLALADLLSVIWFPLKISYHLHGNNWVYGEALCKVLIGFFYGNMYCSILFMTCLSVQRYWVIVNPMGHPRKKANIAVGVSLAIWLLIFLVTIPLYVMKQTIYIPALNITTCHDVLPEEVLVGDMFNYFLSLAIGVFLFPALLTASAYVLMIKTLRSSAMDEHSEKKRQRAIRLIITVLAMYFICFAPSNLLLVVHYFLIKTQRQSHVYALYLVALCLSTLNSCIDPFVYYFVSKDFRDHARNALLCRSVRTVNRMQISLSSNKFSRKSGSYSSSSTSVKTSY
The test can be described thus: 45Ca release by Xenopus oocytes expressing wild-type mouse C140 receptor. The test is classed as cell-based. How it is done:
Agonist-induced increases in ^45 Ca release by oocytes expressing cRNA encoding C140 receptor or other recombinant cells producing C140 receptor are assessed by published techniques (Williams, J. A., et al., Proc Natl Acad Sci USA (1988) 85:4939-4943). Briefly, intracellular calcium pools are labeled by incubating groups of 30 oocytes in 300 μl calcium-free modified Barth's solution (MBSH) containing 50 μCi ^45 CaCl2 (10-40 mCi/mg Ca; Amersham) for 4 hours at RT. The labeled oocytes or cells are washed, then incubated in MBSH II without antibiotics for 90 minutes. Groups of 5 oocytes are selected and placed in individual wells in a 24-well tissue culture plate (Falcon 3047) containing 0.5 ml/well MBSH II without antibiotics. This medium is removed and replaced with fresh medium every 10 minutes; the harvested medium is analyzed by scintillation counting to determine ^45 Ca released by the oocytes during each 10-minute incubation. The 10-minute incubations are continued until a stable baseline of ^45 Ca release per unit time is achieved. Two additional 10-minute collections are obtained, then test medium including agonist is added and agonist-induced ^45 Ca release determined.
Oocytes from Xenopus laevis were harvested and prepared using published techniques (Coleman, A., in Hames, B. D., and Higgins, S. J., eds, Transcription and Translation: A Practical Approach, IRL Press, pp. 271-302; Williams, J. A., et al. Proc Natl Acad Sci USA (1988) 85:4939-4943]. To remove follicular cells, oocytes were incubated for 1.5 h with shaking in calcium-free Barth's containing 2 mg/ml each of collagenase 1A and hyaluronidase 1S. The oocytes were then washed five times in regular Barth's and incubated at 18° C. in Barth's medium containing 100 U/ml penicillin, 100 μg/ml streptomycin, and 2.5 mM sodium pyruvate. Stage V oocytes were selected and injected with 30 nl of cRNA (0.33 μg/μl water) or water alone, and then incubated with 0.25 ml of medium in groups of four/well in a 96-well culture plate. After 36 hours the oocytes were incubated with ^45 Ca (250 μCi/ml). After 12 h incubation the oocytes were washed and 0.2 ml of medium added and replaced every five minutes. The harvested medium was analyzed by scintillation counting. After five replacements to determine the baseline release of ^45 Ca, test medium with the agonist, e.g. SLIGRL (SEQ ID NO: 23), was added and the evoked ^45 Ca-release determined.
Oocytes were injected with capped cRNA (ca 10 ng) encoding wild-type mouse C140 receptor (WT) or either of the three mutant receptors 35Pro, 35Arg and 35His. After 36 hours, cRNA-injected and control water-injected, oocytes were loaded with ^45 Ca, and 12 hours thereafter peptide or trypsin-induced ^45 Ca release were determined as described above. The peptide SLIGRL (SEQ ID NO: 23) was added at 100 μM, and trypsin at 300 pM. The stimulation with the peptide was done on the same group of oocytes after the stimulation with trypsin. The data shown in Table 1 represent the mean of three replicate determinations, and denotes the increase compared to oocytes injected with water.
Various peptides were tested at 100 μM in the assay above using wild-type mouse C140 receptor, expressed in oocytes.

Test [2] has as its target T2, mutant C140 receptor 35Arg (serine-35 replaced with arginine) (Mus musculus, UniProt P55086, S39R).
T2 construct: Site-directed mutagenesis was employed to construct mutant receptors in the pSG-5; expressed in transfected cells; host or cells: Xenopus laevis oocytes injected with capped cRNA
T2 sequence (P55086 32-399 S39R limits assumed): T1 sequence (P55086 32-399 limits assumed) with S8R
The test can be described thus: 45Ca release by Xenopus oocytes expressing mutant C140 receptor 35Arg. The test is classed as cell-based. Particulars: 35Arg receptor. An excerpt:
Both native and mutant C140 receptors were produced in oocytes and activated with a peptide mimicking the new amino-terminus", or by the proteolytic enzyme trypsin (which cleaves the extracellular region). Native receptors were produced by cloning the coding region of the receptor gene, using the polymerase chain reaction, into the expression vector pSG-5 (Green, S. et al., Nucleic Acid Res (1988) 16:369). The orientation and integrity of the cloned coding region was verified by determining the nucleotide sequence with the Sanger chain-termination method. Site-directed mutagenesis was employed to construct mutant receptors in the pSG-5. […]
Oocytes from Xenopus laevis were harvested and prepared using published techniques (Coleman, A., in Hames, B. D., and Higgins, S. J., eds, Transcription and Translation: A Practical Approach, IRL Press, pp. 271-302; Williams, J. A., et al. Proc Natl Acad Sci USA (1988) 85:4939-4943]. To remove follicular cells, oocytes were incubated for 1.5 h with shaking in calcium-free Barth's containing 2 mg/ml each of collagenase 1A and hyaluronidase 1S. The oocytes were then washed five times in regular Barth's and incubated at 18° C. in Barth's medium containing 100 U/ml penicillin, 100 μg/ml streptomycin, and 2.5 mM sodium pyruvate. […] The harvested medium was analyzed by scintillation counting. […]

Changes are numbered by the printed parent chain. Peptide text beside a SMILES is read from it.

Take `CC[C@H](C)[C@H](NC(=O)[C@H](CC(C)C)NC(=O)[C@@H](N)CO)C(=O)NCC(=O)N[C@@H](CCCNC(=N)N)C(=O)N[C@@H](CC(C)C)C(=O)O` [SLIGRL] (H-SLIGRL-OH): the “Fold increase in 45Ca” value amounted to 15 fold in test [1] (Table 2, peptides at 100 μM, wild-type mouse C140 receptor in oocytes); 11 fold in test [1] (WT receptor, peptide at 100 μM, same oocytes after trypsin stimulation, compared to water-injected oocytes); 15 fold in test [2] (peptide at 100 μM, same oocytes after trypsin stimulation).

Turning to trypsin, the “Fold increase in 45Ca” value amounted to 6.6 fold in test [1] (WT receptor, trypsin at 300 pM, increase compared to water-injected oocytes, mean of three) and 0 fold in test [2] (trypsin at 300 pM, increase compared to water-injected oocytes).
